# Experimental data from patent publication US20250236639A1, “NEUROACTIVE STEROIDS AND COMPOSITIONS THEREOF” (Sage Therapeutics, Inc., priority 2019, published 2025).
# Target: GABAA receptor
# Test: Steroid inhibition of [35S]-TBPS binding, rat brain cortical membranes
# Conditions: 3 nM [35S]-TBPS, in the presence of 5 mM GABA
# Method: [^35S]-t-Butylbicyclophosphorothionate (TBPS) binding assays using rat brain cortical membranes in the presence of 5 mM GABA has been described (Gee et al, J. Pharmacol. Exp. Ther. 1987, 241, 346-353; Hawkinson et al, Mol. Pharmacol. 1994, 46, 977-985; Lewin, A. H et al., Mol. Pharmacol. 1989, 35, 189-194).
# Briefly, cortices are rapidly removed following decapitation of carbon dioxide-anesthetized Sprague-Dawley rats (200-250 g). The cortices are homogenized in 10 volumes of ice-cold 0.32 M sucrose using a glass/teflon homogenizer and centrifuged at 1500×g for 10 min at 4° C. The resultant supernatants are centrifuged at 10,000×g for 20 min at 4° C. to obtain the P2 pellets. The P2 pellets are resuspended in 200 mM NaCl/50 mM Na—K phosphate pH 7.4 buffer and centrifuged at 10,000×g for 10 min at 4° C. This washing procedure is repeated twice and the pellets are resuspended in 10 volumes of buffer. Aliquots ([…]) of the membrane suspensions are incubated with 3 nM [^35S]-TBPS and […] aliquots of test drug dissolved in dimethyl sulfoxide (DMSO) (final 0.5%) in the presence of 5 mM GABA. The incubation is brought to a final volume of 1.0 mL with buffer. Nonspecific binding is determined in the presence of […] and ranged from 15 to 25%. Following a 90 min incubation at room temp, the assays are terminated by filtration through glass fiber filters (Schleicher and Schuell No. 32) using a cell harvester (Brandel) and rinsed three times with ice-cold buffer. Filter bound radioactivity is measured by liquid scintillation spectrometry. Non-linear curve fitting of the overall data for each drug averaged for each concentration is done using Prism (GraphPad). […] The concentration of test compound producing 50% inhibition (IC50) of specific binding and the maximal extent of inhibition (Imax) are determined for the individual experiments with the same model used for the overall data and then the means±SEM.s of the individual experiments are calculated.
# Various compounds are or can be screened to determine their potential as modulators of [^35S]-TBPS binding in vitro. These assays are or can be performed in accordance with the above
row,SMILES,IC50 [nM]
1,"COC[C@@]1(O)CC[C@H]2[C@H](CC[C@@H]3[C@@H]2CC[C@]2(C)[C@@H](C4(Cn5cc(C#N)cn5)COC4)CC[C@@H]32)C1 [Compound 40, 1-((3-((3R,5R,8R,9R,10S,13S,14S,17S)-3-hydroxy-3-(methoxymethyl)-13-methylhexadecahydro-1H-cyclopenta[a]phenanthren-17-yl)oxetan-3-yl)methyl)-1H-pyrazole-4-carbonitrile]",< 100
2,"CC(C)(Cn1cc(C#N)cn1)[C@H]1CC[C@H]2[C@@H]3CC[C@@H]4C[C@](C)(O)CC[C@@H]4[C@H]3CC[C@]12C [Compound 41, 1-(2-((3R,5R,8R,9R,10S,13S,14S,17S)-3-hydroxy-3,13-dimethylhexadecahydro-1H-cyclopenta[a]phenanthren-17-yl)-2-methylpropyl)-1H-pyrazole-4-carbonitrile]",< 100
3,"CC[C@]12CC[C@](O)(COC)C[C@H]1CC[C@H]1[C@@H]3CC[C@H]([C@](C)(O)Cn4cc(C#N)cn4)[C@@]3(C)CC[C@@H]12 [Compound 42, 1-((S)-2-((3R,5R,8S,9S,10S,13S,14S,17S)-10-ethyl-3-hydroxy-3-(methoxymethyl)-13-methylhexadecahydro-1H-cyclopenta[a]phenanthren-17-yl)-2-hydroxypropyl)-1H-pyrazole-4-carbonitrile]",< 100
4,"CC[C@]12CC[C@](O)(COC)C[C@H]1CC[C@H]1[C@@H]3CC[C@H]([C@@](C)(O)Cn4cc(C#N)cn4)[C@@]3(C)CC[C@@H]12 [Compound 43, 1-((R)-2-((3R,5R,8S,9S,10S,13S,14S,17S)-10-ethyl-3-hydroxy-3-(methoxymethyl)-13-methylhexadecahydro-1H-cyclopenta[a]phenanthren-17-yl)-2-hydroxypropyl)-1H-pyrazole-4-carbonitrile]",< 100
5,"CCC[C@@]1(O)CC[C@@]2(CC)[C@H](CC[C@H]3[C@@H]4CC[C@H]([C@](C)(O)Cn5cc(C#N)cn5)[C@@]4(C)CC[C@@H]32)C1 [Compound 44, 1-((S)-2-((3R,5R,8S,9S,10S,13S,14S,17S)-10-ethyl-3-hydroxy-13-methyl-3-propylhexadecahydro-1H-cyclopenta[a]phenanthren-17-yl)-2-hydroxypropyl)-1H-pyrazole-4-carbonitrile]",< 100
6,"CCC[C@@]1(O)CC[C@@]2(CC)[C@H](CC[C@H]3[C@@H]4CC[C@H]([C@@](C)(O)Cn5cc(C#N)cn5)[C@@]4(C)CC[C@@H]32)C1 [Compound 45, 1-((R)-2-((3R,5R,8S,9S,10S,13S,14S,17S)-10-ethyl-3-hydroxy-13-methyl-3-propylhexadecahydro-1H-cyclopenta[a]phenanthren-17-yl)-2-hydroxypropyl)-1H-pyrazole-4-carbonitrile]",100 to 1000
7,"C[C@@]1(O)CC[C@H]2[C@H](CC[C@@H]3[C@@H]2CC[C@@]2(C)[C@H]3[C@H](C3CC3)C[C@@H]2[C@@](C)(O)Cn2cc(C#N)cn2)C1 [Compound 46, 1-((R)-2-((3R,5R,8R,9R,10S,13S,14S,15S,17S)-15-cyclopropyl-3-hydroxy-3,13-dimethylhexadecahydro-1H-cyclopenta[a]phenanthren-17-yl)-2-hydroxypropyl)-1H-pyrazole-4-carbonitrile]",< 100
8,"C[C@@]1(O)CC[C@H]2[C@H](CC[C@@H]3[C@@H]2CC[C@@]2(C)[C@H]3[C@H](C3CC3)C[C@@H]2[C@](C)(O)Cn2cc(C#N)cn2)C1 [Compound 47, 1-((S)-2-((3R,5R,8R,9R,10S,13S,14S,15S,17S)-15-cyclopropyl-3-hydroxy-3,13-dimethylhexadecahydro-1H-cyclopenta[a]phenanthren-17-yl)-2-hydroxypropyl)-1H-pyrazole-4-carbonitrile]",< 100
9,"C[C@@H]1C[C@H]([C@](C)(O)Cn2cc(C#N)cn2)[C@@]2(C)CC[C@H]3[C@@H](CC[C@@H]4C[C@](C)(O)CC[C@@H]43)[C@H]12 [Compound 48, 1-((S)-2-hydroxy-2-((3R,5R,8R,9R,10S,13S,14S,15R,17S)-3-hydroxy-3,13,15-trimethylhexadecahydro-1H-cyclopenta[a]phenanthren-17-yl)propyl)-1H-pyrazole-4-carbonitrile]",< 100
10,"C[C@@H]1C[C@H]([C@@](C)(O)Cn2cc(C#N)cn2)[C@@]2(C)CC[C@H]3[C@@H](CC[C@@H]4C[C@](C)(O)CC[C@@H]43)[C@H]12 [Compound 49, 1-((R)-2-hydroxy-2-((3R,5R,8R,9R,10S,13S,14S,15R,17S)-3-hydroxy-3,13,15-trimethylhexadecahydro-1H-cyclopenta[a]phenanthren-17-yl)propyl)-1H-pyrazole-4-carbonitrile]",< 100
11,"C[C@H]1C[C@H]2[C@H](CC[C@@H]3[C@@H]2CC[C@@]2(C)[C@H]3CC[C@@H]2[C@](C)(O)Cn2cc(C#N)cn2)C[C@]1(C)O [Compound 50, 1-((S)-2-hydroxy-2-((2S,3S,5R,8R,9R,10S,13S,14S,17S)-3-hydroxy-2,3,13-trimethylhexadecahydro-1H-cyclopenta[a]phenanthren-17-yl)propyl)-1H-pyrazole-4-carbonitrile]",< 100
12,"C[C@H]1C[C@H]2[C@H](CC[C@@H]3[C@@H]2CC[C@@]2(C)[C@H]3CC[C@@H]2[C@@](C)(O)Cn2cc(C#N)cn2)C[C@]1(C)O [Compound 51, 1-((R)-2-hydroxy-2-((2S,3S,5R,8R,9R,10S,13S,14S,17S)-3-hydroxy-2,3,13-trimethylhexadecahydro-1H-cyclopenta[a]phenanthren-17-yl)propyl)-1H-pyrazole-4-carbonitrile]",< 100
13,"C[C@@H]1C[C@H]2[C@H](CC[C@@H]3[C@@H]2CC[C@@]2(C)[C@H]3CC[C@@H]2[C@](C)(O)Cn2cc(C#N)cn2)C[C@]1(C)O [Compound 52, 1-((S)-2-hydroxy-2-((2R,3S,5R,8R,9R,10S,13S,14S,17S)-3-hydroxy-2,3,13-trimethylhexadecahydro-1H-cyclopenta[a]phenanthren-17-yl)propyl)-1H-pyrazole-4-carbonitrile]",< 100
14,"C[C@@H]1C[C@H]2[C@H](CC[C@@H]3[C@@H]2CC[C@@]2(C)[C@H]3CC[C@@H]2[C@@](C)(O)Cn2cc(C#N)cn2)C[C@]1(C)O [Compound 53, 1-((R)-2-hydroxy-2-((2R,3S,5R,8R,9R,10S,13S,14S,17S)-3-hydroxy-2,3,13-trimethylhexadecahydro-1H-cyclopenta[a]phenanthren-17-yl)propyl)-1H-pyrazole-4-carbonitrile]",100 to 1000
15,"COC[C@@]1(O)CC[C@@]2(C)[C@H](CC[C@@H]3[C@@H]2CC[C@@]2(C)[C@H]3CC[C@@H]2[C@@](C)(Cn2cc(C#N)cn2)OC)C1 [Compound 54, 1-((S)-2-((3R,5R,8R,9S,10S,13S,14S,17S)-3-hydroxy-3-(methoxymethyl)-10,13-dimethylhexadecahydro-1H-cyclopenta[a]phenanthren-17-yl)-2-methoxypropyl)-1H-pyrazole-4-carbonitrile]",100 to 1000
16,"COC[C@@]1(O)CC[C@@]2(C)[C@H](CC[C@@H]3[C@@H]2CC[C@@]2(C)[C@H]3CC[C@@H]2[C@](C)(Cn2cc(C#N)cn2)OC)C1 [Compound 55, 1-((R)-2-((3R,5R,8R,9S,10S,13S,14S,17S)-3-hydroxy-3-(methoxymethyl)-10,13-dimethylhexadecahydro-1H-cyclopenta[a]phenanthren-17-yl)-2-methoxypropyl)-1H-pyrazole-4-carbonitrile]",100 to 1000
17,"COC[C@@]1(O)CC[C@H]2[C@H](CC[C@@H]3[C@@H]2CC[C@]2(C)[C@@H](C(C)(C)Cn4cc(C#N)cn4)CC[C@@H]32)C1 [Compound 56, 1-(2-((3R,5R,8R,9R,10S,13S,14S,17S)-3-hydroxy-3-(methoxymethyl)-13-methylhexadecahydro-1H-cyclopenta[a]phenanthren-17-yl)-2-methylpropyl)-1H-pyrazole-4-carbonitrile]",< 100
18,"C[C@@]1(O)CC[C@H]2[C@H](CC[C@@H]3[C@@H]2CC[C@@]2(C)[C@H]3CC[C@@H]2[C@](C)(C#N)Cn2cc(C#N)cn2)C1 [Compound 57, 1-((S)-2-cyano-2-((3R,5R,8R,9R,10S,13S,14S,17S)-3-hydroxy-3,13-dimethylhexadecahydro-1H-cyclopenta[a]phenanthren-17-yl)propyl)-1H-pyrazole-4-carbonitrile]",< 100
